We go through two molecules from patent US5824657A, “Aminoacyl sulfamides for the treatment of hyperproliferative disorders” (priority 1997, dated 1998).

Data set [1] concerns normal human skin fibroblasts cell line ATCC CRL 1501. Description: MTT assay, normal skin fibroblasts. In kind it is cell-based. As to conditions: Skin fibroblast, similar manner to HTB 41 assay.
Protocol: The MTT assay was used as a model to measure the inhibitory effects of the compounds of Formula I. The MTT assay is considered the most convenient modern assay for the determination of cell viability and cell proliferation. […] The MTT assay was performed according to manufacturer's instructions as outlined below.
The cultures were returned to the incubator for 2±0.1 hours. Then the medium was removed from each well and placed into a clean microwell plate for temporary storage. A volume of 0.1 ml of color development solution (Solution C, isopropanol with 0.04M HCl, Chemicon MTT Assay kit, Chemicon International Inc., Temecula, Calif.) was added to each new microwell. […] The absorbance at 540 nm wavelength was determined in a microwell plate reader within two hours of the final preparation of the plates.
The absorbance at 540 nm was recorded for each well by the microwell plate reader after the instrument was zeroed against the blank controls for each plate. The mean absorbance for each test condition was calculated and compared to the mean absorbance for the zero-dose wells in order to obtain percent values. […]
For data set [2], the system named is aminoacyl-tRNA synthetases (aaRS) isolated from HeLa cells. Kind of data set: IC50 determination, aaRS charging and trichloroacetic acid precipitation assay, aaRS partially purified from HeLa cell extracts. In kind it is biochemical. The note with it: preincubation 20 minutes at 25° C., reaction 5-20 minutes. The procedure: IC50 determinations for the aminoacyl-tRNA synthetases (aaRS) isolated from HeLa cells were carried out using a modification of the aaRS charging and trichloroacetic acid precipitation assay described previously (see examples: D. Kern et. al., Biochemie, 61, 1257-1272 (1979) and J. Gilbart et. al. Antimicrobial Agents and Chemotherapy, 37(1), 32-38 (1993)). […] For practical purposes, the minimal acceptable value is approximately 2000 cpm per 10 minute reaction. The final dilution of the HeLa extract in the assays for the aaRS enzymes varies from 50 to 1200-fold.
Test compounds were typically present as serial dilutions in concentrations ranging from 0.35 nM to 35 μM. Test compound solutions were prepared by dissolving test compounds in 100% dimethyl sulfoxide and diluting to the final concentration with 50 mM HEPES, pH 7.5. IC50 determinations were typically performed in duplicate with each experiment containing 4-8 concentrations of test compound and with duplicate controls containing no inhibitor.
The reaction was incubated at 25° C. for 5-20 minutes. At specified time points a 15 microliter aliquot was removed and added to a well of a Millipore filtration plate (Multiscreen-FB, MAFB NOB 10) containing 100 microliters of cold 5% (wt/vol) trichloroacetic acid. Trichloroacitic acid precipitable material was collected by filtration on a Millipore Multiscreen filtration station, washed twice with cold 5% trichloroacetic acid, twice with water, and dried. Plates were typically allowed to air dry for several hours or baked at 50° C. in a vacuum oven for 30 minutes. The radioactivity on the dried plates was quantitated by the addition of Packard Microscint-20 to the wells and counting with a Packard TopCount scintillation counter.
Inhibitor activity typically was reported as a percentage of the control aaRS activity. […] The IC50 (in nM, Hela Cells) values of representative compounds of the present invention are listed in column 5 of Table I.

Data set [3] relates to human epidermoid carcinoma cell line A-253 (ATCC HTB 41). Description: MTT assay, human epidermoid carcinoma cell line. In kind it is cell-based. The note with it: A253, MTT assay, exposure 72 hours, plot extended by eye for compounds active at lowest dose, read-out: IC50 Human Epidermoid Carcinoma Cells ATCC # HTB 41. As to the method: The MTT assay was used as a model to measure the inhibitory effects of the compounds of Formula I. The MTT assay is considered the most convenient modern assay for the determination of cell viability and cell proliferation. An MTT assay kit is commercially available (Chemicon International Inc., Temecula, Calif.). The MTT assay was performed according to manufacturer's instructions as outlined below.
A human epidermoid carcinoma cell line, designated as A-253 (ATCC HTB 41), was obtained in frozen vials from the American Type Culture Collection, Rockville, Md. Monolayer cultures were established from the vials by growth in RPMI 1640 medium supplemented with 10% fetal bovine serum (heat-inactivated), 2 mM L-glutamine, and pen-strep (100 units/ml; 100 μg/ml). The cultures were incubated at 37±1.5° C. in 5±1% CO2 in humidified air and were passaged weekly to avoid overgrowth. The laboratory cultures used for the present study were at passage seven after receipt of frozen stocks from ATCC.
Compounds of Formula I in powder form were stored at room temperature in plastic micro centrifuge tubes. Each tube was placed in a plastic bag containing desiccant. Each test compound was prepared as a 2 mg/ml solution in RPMI 1640 medium (non-supplemented) on the day of use, and the appropriate dilutions were prepared with the same vehicle.
Each compound was handled by sterile techniques in Class II, Type B biological safety cabinets.
The reference control compound was methotrexate at concentrations of 0.5 μg/ml to 50 μg/ml. A 1 mg/ml stock was prepared on the day of dosing and diluted to the appropriate concentrations using RPMI 1640 medium (non-supplemented).
A blank control was included in the MTT assay in order to determine the absorbance associated with the absence of any cells. This control was RPMI 1640 culture medium carried through the same procedures used to culture the cells in the microwell plates and to conduct the MTT assay color development. The microwell plate reader was zeroed against the blank control prior to recording the absorbance in the test wells.
Laboratory monolayer cultures of A-253 cells were trypsinized and seeded at a concentration of 24,000 cells in 0.05 ml of complete RPMI 1640 culture medium per well in 96-well plates. Eight wells in a column were seeded for each test condition. The blank control was prepared by adding 0.05 ml of culture medium (no cells) to 8 wells in the first column of each plate. A separate microwell plate was used for each compound of Formula I.
The test compound treatments were initiated immediately after seeding the cells by adding 0.05 ml of treatment medium to each microwell. Ten different test compound concentrations were prepared in culture medium (without serum), and each concentration was applied to a volume of eight wells on the appropriate plate. The final concentrations in the wells were 1000, 500, 250, 100, 50, 25, 10, 5, 2.5, and 1 μg/ml.
An untreated (zero-dose) condition was included as a column of 8 wells on each plate. The zero-dose and blank control wells received 0.05 ml of culture medium (without serum). The microwell plates were placed in an incubator at 37±1.5° C. in 5% CO2 in humidified air for an exposure period of 72±0.5 hours.
After the exposure period, 0.1 ml of MTT dye solution (0.5 mg/ml in serum free RPMI 1640 medium) was added to each micowell. The cultures were returned to the incubator for 2±0.1 hours. Then the medium was removed from each well and placed into a clean microwell plate for temporary storage. A volume of 0.1 ml of color development solution (Solution C, isopropanol with 0.04M HCl, Chemicon MTT Assay kit, Chemicon International Inc., Temecula, Calif.) was added to each new microwell. The contents were carefully mixed and allowed to sit at room temperature for approximately 1 hour. The medium that was saved from each microwell then was pipetted back into the well from which it originally came. […]

The nature of data set [4]: Acute toxicity in the mouse, intraperitoneal. As to the method:
Six groups containing 5 CD-1 female mice (Charles River Lab, Mass.) weighing 19-23 g were used in the experiment. Water and Agway rodent chow were provided ad libitum throughout the study. The laboratory animals were handled according to the institutional animal husbandry Standard Operating Procedures.
The solution was filtered with 0.2 μm Nalgene syringe filter and then further diluted serially with normal saline by 5-fold (0.6 ml to 3.0 ml) to 0.016 mg/ml. Group 1 animals were injected intraperitoneally (i.p.) with 10 ml/kg normal saline as negative controls. Groups 2 to 6 were given Compound XIV i.p. at 100, 20, 4, 0.8 and 0.16 mg/kg, respectively.
The LD50 of the compound was calculated by the Method of Probits (See Probit Analysis, 3rd Edition, D. J. Finney, Cambridge University Press, Cambridge, 1971). All surviving animals were sacrificed after the last observation on seventh day post-treatment.

Data set [5] is classed as in vitro ADME, human. As to the method: Five formulations of Compound XIV were prepared for in vitro study. The formulations are represented in Table III
Franz static diffusion chambers were filled with a 4% BSA isotonic buffered saline and equilibrated to a temperature of 37° C. by a circulating water pump. Excised human cadaver skin (~0.2 mm thickness), which is either intact or tape-stripped, is placed onto each chamber.
The test formulations containing non-radioactive Compound XIV were spiked with tritiated Compound XIV. The specific radioactivity was about 0.05 μCi/mg test formulation. Spiked formulations were applied to the skin surface. The specific radioactivity in the stratum corneum, epidermis, dermis and the reservoir were measured at 1, 3, 6 and 24 h time points by liquid scintillation counting, to investigate cumulative penetration at each time point. The specific activity is expressed as a percentage relative to the total recovery from the reservoir, skin wipes, and the respective skin layers at the end of each experiment.
Each of the five formulations were tested on intact skin (5 replicates each) and tape-stripped skin (only in one diffusion cell) to investigate cumulative penetration at 0, 1, 3, 6, and 24 hours and tissue recovery was measured at 24 hours. […]

For data set [6], the system named is bacterial growth. As to conditions: Osada and Isono 1985; cited from earlier work.

In data set [1], `Nc1ncnc2c1ncn2[C@@H]1O[C@H](CNS(=O)(=O)NC(=O)[C@@H](N)Cc2ccccc2)[C@@H](O)[C@H]1O` [Compound XIV, 5'-deoxy-adenosine 5'-N-(N-L-phenylalanyl)sulfamide] displayed a half-maximal inhibitory concentration (IC50) of 5580 nM. For the same molecule, the midpoint of inhibition in data set [2], the IC50, lay at 5 nM. In addition, the IC50 in data set [3] is 530 nM. In data set [4] (i.p. 100 mg/kg (group 2)), the mortality entry is “Most of the group 2 mice died between 8 to 24 hours after injection”. In data set [4] (mouse, in vivo, ip), the “95% confidence limit of the LD50” value was 24 to 63 mg/kg, the LD50 at 168 h was found to be 44 mg/kg and the tolerability entry is on record as “a high dose of Compound XIV was tolerated”. Further, in data set [4] (mouse, in vivo, ip, 20 mg/kg), the “body weight loss after injection” value is “about 10%” and the symptoms after dosing entry is recorded as “no unusual symptoms observed”. Besides, the symptoms after dosing result in data set [4] (mouse, in vivo, ip, 100 mg/kg) is “showed loose hair starting at 3-4 hours after dosing and they also lost their appetite and became less active”. In addition, in data set [5], the “penetration of target tissue, epidermis” value is “penetrates the target tissue, epidermis, in significant concentration at 6 hours and levels are generally increased at 24 hours”.
Take `C[C@H](N)C(=O)NS(=O)(=O)OC[C@H]1O[C@@H](n2cnc3c(N)nc(Cl)nc32)[C@H](O)[C@@H]1O` [ascamycin]: the “inhibition of bacterial growth” value in data set [6] is recorded as “ineffective inhibitor against bacterial growth”.
